Measurements: article PMC7747594, “Protease-activated receptor-2 ligands reveal orthosteric and allosteric mechanisms of receptor inhibition” (Communications Biology, 2020)
“And” between values parts separate entries of the source, which are not always exact repeats. Equal values may be shown once.

Experiments:
Type in all cases: in vivo
mast cells = test: Immunohistochemistry, histamine release in rat paw; conditions: pre-treatment; 30 min
Experimental: (§1) Rat paw tissues were collected, fixed in 10% neutral-buffered formalin (Sigma-Aldrich) for 2 h at 4 °C, transferred into falcon tubes containing 25% sucrose in PBS and left overnight at 4 °C. Tissues were then embedded with Optimal Cutting Temperature compound (OCT, Sakura Finetek, USA) and stored at −80 °C before making cryo-sections for histological analysis. Frozen sections (5 µm) were made using a cryostat-microtome (Leica Biosystems, Germany). For mast cell staining, slides were briefly washed with distilled water before staining with 0.1% toluidine blue (Sigma-Aldrich, pH 2.5) for 3 min. Slides were then dehydrated and mounted in DPX mountant (Sigma-Aldrich, USA). For immunohistochemistry, slides were briefly rinsed with PBS to remove OCT. Except for tryptase staining, antigen retrieval was performed by incubating slides in citrate buffer (0.01 M, pH 6) at 95 °C for 20 min. They were then cooled down briefly and incubated with blocking medium (PBS, 0.1% Triton X-100, 10% horse serum) for 1 h at room temperature in a humidity chamber. Samples were incubated with primary antibody medium (PBS, 0.1% Triton X-100, 4% horse serum; 1:100 primary antibody including – histamine, neutrophil elastase or ED1 antibodies) overnight at 4 °C. […] Tryptase-, neutrophil elastase- and ED1-positive cells were quantified using FIJI/ImageJ 1.42q software, USA.

[1] = tested on: myeloperoxidase (MPO) activity; test: Myeloperoxidase assay on rat paw tissue; conditions: for MPO activity (unit mg^-1): 2f-induced rat paw oedema, paw tissue, individual animals (Figure 5i); for Myeloperoxidase (MPO) activity increased by 2f-LIGRLO-NH2: pre-treatment, 30 min
Experimental: Rat paw tissues were collected, snap-frozen with liquid N2, and stored at −80 °C. Samples were cut with a scalpel, weighed, and added to MPO buffer (50 mM potassium phosphate buffer, pH 6.0) to a concentration of 200 mg ml^−^1, before homogenising using zirconium oxide beads (1 and 2 mm, Next Advance, USA) and a Bullet Blender® homogeniser (Next Advance, USA). Homogenised tissues were diluted to 100 mg ml^−1 with MPO buffer containing 1% hexadecyl trimethylammonium bromide (Sigma-Aldrich, USA). Samples were then sonicated for 5 min, centrifuged at 13,000 × g for 10 min at 4 °C, and the clear supernatant for each sample was collected.

macrophages = test: Immunohistochemistry, ED1-positive macrophages in rat paw; conditions: 30 min after agonist administration
Experimental: as §1

SMILES | histamine release (mast cells) | MPO activity (unit mg^-1) [1] | Myeloperoxidase (MPO) activity increased by 2f-LIGRLO-NH2 [1] | number of ED1 +ve cells in rat paw tissue compared to sham (macrophages)
C[C@@H](C1CCCCC1)n1c(-c2cc3c(cc2Br)OCO3)nc2cc(C(=O)Nc3ccc(C#N)cc3)ccc21 [AZ3451] | blocked | 0.2692 unit mg^-1 and 0.2802 unit mg^-1 and 0.295 unit mg^-1 and 0.3577 unit mg^-1 | reduced almost to baseline | no significant difference
CCCc1cc(F)ccc1C(O)c1ncc[nH]1 (centres unmarked) [AZ8838] | blocked | 0.2682 unit mg^-1 and 0.2003 unit mg^-1 and 0.454 unit mg^-1 and 0.2121 unit mg^-1 and 0.4127 unit mg^-1 | reduced almost to baseline | no significant difference
